In patent US20250034139A1, “AMINE COMPOUNDS HAVING ANTI-INFLAMMATORY, ANTIFUNGAL, ANTIPARASITIC, AND ANTICANCER ACTIVITY” (PHARMA CINQ, LLC, priority 2013, published 2025):
≈ marks a conversion by molar mass, not a printed value. Read-outs that look alike come from different tables or passages of the source. Marks after values point to notes of the source that are not given here.

Key:
THP-1 cells = experiment: Example D: LPS-triggered THP-1 cell death assay, acute/5-hour and chronic/48-hour; type: cell-based, Human; details: 10 ng/ml LPS, 0.1 μM test compound, 48 hours
Method: Compounds of the invention were tested at 0.1 μM versus AC in the LPS-triggered THP-1 cell death assay. Both acute/5-hour and chronic/48-hour phases of cell death were assessed. Compounds were screened in batches with DMSO as the negative control and AC as the high activity control.

[1] = test system: Candida albicans strain 3153; experiment: Example H: Candida albicans growth inhibition (OD 600 nm); type: cell-based
Outline: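 Growth inhibition computed as % versus DMSO control from OD600 after ~24 h at 30° C. Inoculum: washed overnight YPD culture of strain 3153 at 3.5×10^4 CFU/ml in YPD; final compound concentrations 0, 5, 10, 16, 22, 30, 40 μM, duplicate wells.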

Trichophyton rubrum = experiment: Example J: Trichophyton rubrum growth inhibition, scoring by eye; type: cell-based; details: Trichophyton rubrum, 144 h; 6 days at 30° C., tested 6 to 40 μM; read-out: MIC, μM (maximum inhibition concentration, scoring by eye)
Outline: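 Filtered T. rubrum suspension from PDA plates (grown 4 days, 30 °C) treated with diluted compounds in triplicate, incubated 6 days at 30 °C. Plates imaged; MIC scored by eye.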

[2] = test system: Cryptococcus neoformans (serotype D); experiment: Example K: Cryptococcus neoformans (serotype D) growth inhibition; type: cell-based
[3] = test system: Hep3B hepatocellular carcinoma cell line; details: for Tumor Weight (g) Mean ± SEM: Hep3B in liver of nude mice, day 35, oral daily, sorafenib 30 mg/kg/day alone, 20 mg/kg/day in combination, AC 180, AK and AB 360 μmol/kg/day; for Body Weight (g) Mean ± SEM Initial: in vivo; for Complete Regressions: number of mice with no viable tumor at necropsy, day 35, doses as Table 35
Excerpt: Hepatocellular carcinoma (HCC) is one of the most common and lethal cancers worldwide, generally developing as a consequence of chronic infection with hepatitis B or C viruses. […] The Hep3B hepatocellular carcinoma cell line is human in origin, contains genetic traces of hepatitis B virus, and can be injected into the livers of athymic immunocompromised mice as a model of primary HCC. […] The test compounds were all administered orally.
The test compounds of the invention were suspended in 1% hydroxypropylmethylcellulose (HPMC) using a sonicator equipped with a microtip to minimize particle size and maximize uniformity of the suspension. Sorafenib was dissolved in a 1:1 mixture of Cremophor EL and ethanol by heating to 60° C. for 1 minute and then sonicating for 10 minutes to fully suspend. Female nude mice (Hsd:athymic nude-Foxn1^nu) weighing approximately 25 g were anesthetized with ketamine/xylazine, laid on their backs, and a 1-cm transverse incision made through the skin and peritoneum of the left upper abdomen. The mediant lobe of the liver was exposed by applying gentle pressure on the abdomen. 1.5-2×10^6 Hep3B cells in a 20 μL volume of matrigel:EMEM serum free (1:1) were slowly implanted by subserosal injection into the liver using a 27-gauge needle on a Hamilton syringe. The liver was allowed to slip back into place, and the peritoneum was closed with sutures and wound clips.
Mice were divided into 8 groups of mice each following injection of cells; the vehicle/vehicle group comprised 12 mice and the other groups comprised 8 or 9. Mice began receiving oral test drug treatments 48 hr post cell injection.
The test compounds, sorafenib, and vehicles were administered by oral gavage. Sorafenib or its cremophor-containing vehicle were given in the morning and compounds of the invention or their HPMC vehicle was administered in the afternoon each day; all animals received two gavage treatments of drugs or appropriate vehicles daily.

[4] = test system: 4T1 mouse mammary breast cancer cells; experiment: Example O: syngeneic 4T1 breast cancer growth in Balb/C mice; type: in vivo
Method: Cancer models in mice generally either involve syngeneic murine tumors in immunocompetent mice or xenografts of human tumors in immunocompromised mice. […] Mice received test compounds by oral gavage in 1% hydroxypropylmethylcellulose from day 2 until day 30. Tumor growth was assessed by caliper measurements twice per week and tumor weight after necropsy, and body weight was also monitored. Treatment groups were: • 1. […] HPMC) • 2. CI (120 μmol/kg/day) • 3. BA (120 μmol/kg/day) • 4. CP (120 μmol/kg/day) • 5. CQ (120 μmol/kg/day) • 6. AA (120 μmol/kg/day) • 7. AC (120 μmol/kg/day)

[5] = test system: HCT-116 colon adenocarcinoma cells; experiment: Example Q: HCT-116 liver metastases of human colorectal cancer in nude mice; type: in vivo; details: 240 μmol/kg/day oral, 28 days
Excerpt: A major cause of morbidity and mortality in patients with colorectal cancer is metastasis of the tumor into the liver; colorectal cancer can often be successfully resected from the primary site, but metastases to the liver are much less accessible to surgical treatment. A mouse model of colorectal cancer metastasis to the liver has been established, using HCT-116 colon adenocarcinoma cells injected into the spleen of athymic (nude) mice. The HCT-116 cancer cells spontaneously spread from the spleen into the liver via the circulation, and they form tumors in the liver (Ishizu, K., Sunose, N., Yamazaki, K., Tsuruo, T., Sadahiro, S., Makuuchi, H., and Yamori, T. Development and Characterization of a Model of Liver Metastasis Using Human Colon Cancer HCT-116. Biol. Pharm. Bull. 2007, 30(9):1779-1783).
Mice (female Hsd:athymic nude-Foxn1^nu) were anesthetized with xylazine/ketamine intraperitoneal injection, followed by incision approximately 10 mm on the left subcostal region (area disinfected with ethanol) to expose the peritoneum. The peritoneum was opened for about 8 mm near the spleen, and 2.5×10^6 cells in 50 μL PBS were injected into the spleen using a 30G needle. The spleen was repositioned, and the surgical area was closed using sutures and clips.
The day after receiving cells, mice were randomized into groups of five based upon body weight to provide groups with approximately equivalent mean body weight. Mice received a single, daily oral dose of test article or vehicle (1% hydroxypropylmethylcellulose) beginning 48 hours following cell injection into the spleen.
At study termination 28 days after HCT-116 cell injection, body weights were recorded, and spleens and livers were removed, weighed and fixed in 10% formalin. Livers were sectioned and stained; the relative areas of normal and tumor tissue were quantified in histology sections with quantitative planimetry software.

[6] = test system: 4T1 murine breast cancer cells; experiment: Example S: in vitro anticancer screen, 4T1 cells, Wst1; type: cell-based, mouse; details: Mus musculus, 4T1, 18 h, 18 hr, Wst1
Outline: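 Read-out is Wst1 absorbance (450 nm, reference 630 nm) after roughly 2 hr dye incubation, giving percent cell survival versus vehicle. Before that, compounds at 1 μM or 5 μM were applied for 18 hr to 4T1 cells plated at 1×10^4 per well.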

[7] = test system: PC3 human prostate cancer cells; experiment: Example S: in vitro anticancer screen, PC-3 cells, Wst1; type: cell-based; details: Homo sapiens, PC-3; 2.5 μM, approximately 20 hours, Wst1; read-out: PC-3, percent of cancer cell survival relative to vehicle treated cells
Outline: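 Values give percent survival relative to vehicle, read by Wst1 absorbance (450/630 nm) after 2 h dye incubation, in triplicate. Cells were seeded at 2×10^4/well and treated about 20 h with compound at 0.4, 0.5 or 2.5 μM, depending on compound.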

[8] = test system: PC-3 prostate cancer cells; experiment: Example T: sensitisation of PC-3 cells to doxorubicin, oxaliplatin, paclitaxel or vincristine, Wst1; type: cell-based, human; details: PC-3 cells, 72 hours
[9] = test system: Vit-D3 activated THP-1 cells; experiment: Example B: Acridine Orange (A.O.) uptake, lysosomal acidification and integrity; type: cell-based, Human; details: 5 hours
Method: In this experiment, cell viability was monitored and uptake and accumulation of acridine orange, a lysosomotropic fluorescent dye, was used to assess lysosomal acidification and integrity. JC-1 dye was used to measure effects of test compounds on mitochondrial membrane potential (MMP); reduction of MMP is a feature of apoptotic cell death. • 1. […] The tubes were washed twice in DPBS, resuspended in 500 μl DPBS and acquired on the FACSCalibur.

S. cerevisiae = experiment: Example I: Saccharomyces cerevisiae growth inhibition (OD 600 nm); type: cell-based; details: tested 4 to 50 μM
[10] = test system: EAE induced by PLP139-151; experiment: Example G: Experimental Autoimmune Encephalitis (EAE) mouse model of multiple sclerosis; type: in vivo
[11] = HCT-116 liver metastases, nude mice

CCCCCCOc1ccc(CNc2ncnc3ccccc23)cc1 [AB, N-[4-(Hexyloxy)benzyl]quinazolin-4-amine]
Viable cell percent change, Chronic/48-hour, Mean (THP-1 cells): 56.56% | MIC ([1]; Candida albicans, 3153, 24 hrs at 30° C., YPD, XLfit, read-out: MIC (uM) (99% of inhibition of fungal growth)): 33 µM (≈ 11.1 µg/mL) | IC50 ([1]; Candida albicans, 3153, read-out: IC50 (uM) (50% inhibition of fungal growth), 24 hrs at 30° C., YPD, XLfit): 11 µM | MIC (Trichophyton rubrum): 18 µM (≈ 6.04 µg/mL) | IC50 ([2]; Cryptococcus deneoformans, read-out: IC50 (concentration for 50% of inhibition), OD of 48 hour reading, 37° C., tested 4 to 60 μM, XLfit): 1.15 µM | MIC ([2]; Cryptococcus deneoformans, OD of 48 hour reading, 37° C., tested 4 to 60 μM, XLfit, read-out: MIC (concentration for maximum-99% of inhibition)): 40.8 µM (≈ 13.7 µg/mL) | Tumor Weight (g) Mean ± SEM [3]: 0.88 ± 0.33 g | Body Weight (g) Mean ± SEM Initial [3]: 26.2 ± 0.7 g | Complete Regressions [3]: 2

CCCCCCOc1ccccc1OCCCNc1ccnc2ccccc12 [CQ, N-{3-[2-(Hexyloxy)phenoxy]propyl}quinolin-4-amine]
Final Tumor Volume ([4]; 4T1 in female Balb/C mice, 120 μmol/kg/day oral gavage, day 2 to day 30): 140 ± 60 mm^3 | Δ BW % ([4]; 4T1 in female Balb/C mice, 120 μmol/kg/day oral, final vs initial body weight): −2.0% | Final Body Weight ([4]; 4T1 in female Balb/C mice, 120 μmol/kg/day oral, final, in g (unit assumed)): 24.4 ± 0.9 | Initial Body Weight ([4]; 4T1 in female Balb/C mice, 120 μmol/kg/day oral, initial (baseline)): 24.9 ± 0.6 g | tumor growth versus vehicle-treated mice, in words ([4]; daily oral administration, 120 μM/kg/day as printed): most active of the compounds tested in this experiment | excess of the Vehicle group's liver weight/body weight ratio over the treated group [5]: 12% | area of liver invaded by metastatic cancer cells, in words ([5]; histology planimetry): markedly reduced the area of liver invaded by metastatic cancer cells | Final Body Weight Grams [5, 11]: 26.2 ± 0.9 NS Grams | Liver Weight % of Body Weight [5, 11]: 5.3 ± 0.1% | Tumor Area % of Vehicle Group [5, 11]: 0.15% * | Tumor Area % of Total Liver ([5]; HCT-116 liver metastases, nude mice, histology planimetry): 0.02 ± 0.01% | viability at 1 µM ([6]; 1 μM, read-out: 4T1 1 μM, percent of cancer cell survival relative to vehicle treated cells): 71.9% | viability at 5 µM ([6]; 5 μM, read-out: 4T1 5 μM, percent of cancer cell survival relative to vehicle treated cells): 57.9% | viability at 2.5 µM [7]: 95.8% | viability at 2.5 µM ([8]; Homo sapiens, compound 2.5 μM alone, Wst1, vehicle = 100, read-out: No Chemo: percent cell survival): 95.8% | Doxorubicin 3.5 μM: percent cell survival ([8]; compound 2.5 μM + doxorubicin 3.5 μM, chemotherapy agent alone normalized to 100%): 86.5% | Oxaliplatin 100 μM: percent cell survival ([8]; compound 2.5 μM + oxaliplatin 100 μM, chemotherapy agent alone normalized to 100%): 93.8% | Paclitaxel 50 μM: percent cell survival ([8]; compound 2.5 μM + paclitaxel 50 μM, chemotherapy agent alone normalized to 100%): 34.8% | Vincristine 100 nM: percent cell survival ([8]; compound 2.5 μM + vincristine 100 nM, chemotherapy agent alone normalized to 100%): 47.1%

CCN(CC)CCCC(C)Nc1ccnc2cc(Cl)ccc12 (stereo not shown) [Chloroquine, Chloroquine diphosphate, reference compound]
A.O. FL-3 fluorescence (MFI) percent change from DMSO no LPS, Mean ± SE ([9]; 50.0 μM C.Q., 1 ng/ml LPS): −72.28 ± 0.78% | A.O. FL-3 fluorescence (MFI) percent change from DMSO no LPS, Mean ± SE ([9]; 100.0 μM C.Q., 1 ng/ml LPS): −88.28 ± 1.60% | A.O. FL-3 fluorescence (MFI) percent change from DMSO no LPS, Mean ± SE ([9]; 100.0 μM C.Q., No LPS): −91.25 ± 0.60% | inactive compound (inhibition of yeast growth, in words) (S. cerevisiae): did not show any inhibition of yeast growth up to 50 uM | IC50 ([2]; Cryptococcus deneoformans): > 100 µM | growth inhibition of Cryptococcus neoformans (maximum) ([2]; chloroquine at a concentration of 100 micromolar): less than 50% | inhibition at 100 µM ([2]; read-out: growth inhibition of Cryptococcus neoformans (maximum), chloroquine at a concentration of 100 micromolar): 40%

CN(C(=O)c1c(O)c2ccccc2n(C)c1=O)c1ccccc1 [Linomide, reference compound]
EAE Score on Day 46 ([10]; 60 μmol/kg by oral gavage from Day 14, score 0-5): 2.29 ± 0.48 | EAE Score on Day 14 (Before Treatment) ([10]; baseline, score 0-5): 0.93 ± 0.19

CNC(=O)c1cc(Oc2ccc(NC(=O)Nc3ccc(Cl)c(C(F)(F)F)c3)cc2)ccn1 [Sorafenib, sorafenib, reference compound]
Tumor Weight (g) Mean ± SEM [3]: 0.81 ± 0.20 g | Body Weight (g) Mean ± SEM Initial [3]: 25.9 ± 0.7 g | Complete Regressions [3]: 1
